From BindingDB's records for doi:10.1016/s0968-0896(97)00172-7 (Universit&Agrave, 1997)

Key:
Adenosine receptor A2a = Adenosine receptor A2a (Rattus norvegicus, UniProt P30543)
Adenosine receptor A1 = molecular target: T1, Adenosine receptor A1 (Rattus norvegicus, UniProt P25099)
T1 sequence (P25099 whole entry): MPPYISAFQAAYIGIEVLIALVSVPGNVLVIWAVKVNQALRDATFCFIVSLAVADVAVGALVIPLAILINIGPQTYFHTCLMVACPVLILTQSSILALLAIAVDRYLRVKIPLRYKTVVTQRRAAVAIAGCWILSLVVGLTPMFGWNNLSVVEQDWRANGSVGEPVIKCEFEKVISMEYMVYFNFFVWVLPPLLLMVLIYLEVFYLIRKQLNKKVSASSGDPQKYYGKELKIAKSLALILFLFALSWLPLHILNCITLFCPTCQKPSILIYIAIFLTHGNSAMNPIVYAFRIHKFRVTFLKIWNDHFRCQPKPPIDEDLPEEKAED

Adenosine receptor A2a, sequence (P30543 whole entry): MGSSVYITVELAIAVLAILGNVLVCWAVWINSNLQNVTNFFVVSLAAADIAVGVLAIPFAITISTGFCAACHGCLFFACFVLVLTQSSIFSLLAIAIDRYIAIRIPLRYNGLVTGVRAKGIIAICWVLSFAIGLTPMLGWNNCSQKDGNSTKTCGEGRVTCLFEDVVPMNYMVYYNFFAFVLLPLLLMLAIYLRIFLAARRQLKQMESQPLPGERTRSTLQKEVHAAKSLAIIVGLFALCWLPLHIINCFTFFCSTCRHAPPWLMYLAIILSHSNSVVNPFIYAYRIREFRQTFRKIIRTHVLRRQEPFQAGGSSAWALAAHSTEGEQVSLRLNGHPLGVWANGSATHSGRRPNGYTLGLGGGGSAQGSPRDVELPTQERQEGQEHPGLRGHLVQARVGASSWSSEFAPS

CCNC(=O)C1OC(n2cnc3c(N)nc(C#CC(O)c4ccccc4)nc32)C(O)C1O (stereo not drawn) [R,S-PHPNECA]
Ki (Adenosine receptor A2a): 0.9 nM
Ki (Adenosine receptor A1): 2.5 nM

CCNC(=O)[C@H]1OC(n2cnc3c(N)nc(C#CC(O)c4ccccc4)nc32)[C@@H](O)[C@H]1O (stereo partly drawn) [5-[6-Amino-2-(3-hydroxy-3-phenyl-prop-1-ynyl)-purin-9-yl]-3,4-dihydroxy-tetrahydro-furan-2-carboxylic acid ethylamide]
Ki (Adenosine receptor A2a): 2.6 nM
Ki (Adenosine receptor A1): 5.9 nM

CCCCC#Cc1nc(N)c2ncn([C@@H]3O[C@H](C(=O)NCC)[C@H](O)C3O)c2n1 (stereo partly drawn) [(2S,3R,5R)-5-[6-amino-2-(hex-1-yn-1-yl)-9H-purin-9-yl]-N-ethyl-3,4-dihydroxyoxolane-2-carboxamide]
Ki (Adenosine receptor A2a): 2.2 nM
Ki (Adenosine receptor A1): 130 nM

CCNC(=O)[C@@H]1OC(n2cnc3c(N)nc(C#CC(O)c4ccccc4)nc32)[C@H](O)[C@@H]1O (stereo partly drawn) [S-PHPNECA]
Ki (Adenosine receptor A2a): 0.5 nM
Ki (Adenosine receptor A1): 4 nM
